Test results as given in US20260033761A1, “CHARACTERISATION OF NEUROLOGICAL DYSFUNCTION” (Hoffmann-La Roche Inc., priority 2022, published 2026).
“Also recorded” adds a separate entry of the source. Read-outs that look alike come from different tables or passages of the source.

Legend:
GABA-A receptors = details: Visser et al., 2003; cited from earlier work
GABA-A α5 receptors = target: T1, GABA-A α5 receptors (Rattus norvegicus, UniProt P18508+P19969); details: Wistar rats prenatally exposed to valproic acid; cited from earlier work
T1 construct: host or cells: Wistar rats in vivo (valproic acid model)

GABA-A α5 [1] = target: T2, GABA-A α5 (Homo sapiens, UniProt P18507+P31644); assay: Resting state EEG, Phase 1 SAD/MAD study BP40091 (alogabat vs placebo); type: in vivo, human (adult healthy volunteers); parameters: endogenous in cells; host or cells: brain of adult healthy volunteers, in vivo (resting-state EEG)
T2 sequence (P31644 32-462): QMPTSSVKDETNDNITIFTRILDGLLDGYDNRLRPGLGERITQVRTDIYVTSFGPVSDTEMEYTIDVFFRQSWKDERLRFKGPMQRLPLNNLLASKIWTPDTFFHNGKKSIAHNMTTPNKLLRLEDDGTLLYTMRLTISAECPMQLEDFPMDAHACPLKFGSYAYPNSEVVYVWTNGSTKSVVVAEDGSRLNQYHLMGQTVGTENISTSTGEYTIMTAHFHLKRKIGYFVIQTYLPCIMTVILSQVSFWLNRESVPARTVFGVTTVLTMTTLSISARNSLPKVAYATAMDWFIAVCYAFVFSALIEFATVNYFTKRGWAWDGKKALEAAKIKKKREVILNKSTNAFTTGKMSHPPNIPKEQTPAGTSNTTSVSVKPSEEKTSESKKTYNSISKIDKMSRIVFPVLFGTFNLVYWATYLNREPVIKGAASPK
T2 sequence (P28472 26-473 partner): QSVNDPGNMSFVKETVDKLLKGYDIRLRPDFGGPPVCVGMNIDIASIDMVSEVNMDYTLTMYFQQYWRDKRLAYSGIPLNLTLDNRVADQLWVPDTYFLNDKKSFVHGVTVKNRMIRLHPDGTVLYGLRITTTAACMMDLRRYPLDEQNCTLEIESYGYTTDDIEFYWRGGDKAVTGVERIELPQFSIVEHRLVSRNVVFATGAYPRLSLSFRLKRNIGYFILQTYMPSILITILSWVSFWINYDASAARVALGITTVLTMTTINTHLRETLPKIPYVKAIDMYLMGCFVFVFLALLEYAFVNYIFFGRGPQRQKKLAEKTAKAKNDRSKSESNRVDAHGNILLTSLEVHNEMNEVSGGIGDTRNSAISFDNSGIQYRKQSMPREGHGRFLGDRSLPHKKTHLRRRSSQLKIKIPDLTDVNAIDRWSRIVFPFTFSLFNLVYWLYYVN
T2 sequence (P18507 40-467 limits assumed): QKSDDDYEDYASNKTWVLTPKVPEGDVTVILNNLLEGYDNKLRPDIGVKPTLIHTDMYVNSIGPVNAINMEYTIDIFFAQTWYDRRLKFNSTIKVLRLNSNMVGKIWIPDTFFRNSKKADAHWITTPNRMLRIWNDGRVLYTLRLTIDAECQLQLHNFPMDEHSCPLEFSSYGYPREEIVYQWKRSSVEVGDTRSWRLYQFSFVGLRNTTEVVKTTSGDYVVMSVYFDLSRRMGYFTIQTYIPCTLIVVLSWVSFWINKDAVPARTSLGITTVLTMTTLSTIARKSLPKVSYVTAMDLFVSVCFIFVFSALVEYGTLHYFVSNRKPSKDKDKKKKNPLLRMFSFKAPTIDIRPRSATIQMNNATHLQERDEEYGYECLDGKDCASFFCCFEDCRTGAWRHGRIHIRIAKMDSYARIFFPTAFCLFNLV
Description: Extracting beta band oscillations. […] Here this approach is applied to isolate beta-band oscillations from EEG signals (FIGS. 4,5). This approach entails the estimation of the “background activity” in the frequency range of interest, which is non-oscillatory and/or composed of many oscillatory signals at different neighboring frequencies and therefore appears non-oscillatory. In a first implementation referred to as “locally referenced power”, the “background activity” for a given frequency range of interest (here beta frequency range defined as 16-32 Hz) is estimated by interpolation from power at lower and higher neighboring frequencies, referred to herein as “reference supports” (in this example, reference support points of 12 and 40 Hz are used). Note that in cases where a peak in the alpha band is expected (e.g. a peak around 10 Hz), reference support points that are closer to the beta frequency range on the lower end of the scale may be used, such as e.g. any point between 12 and 16 Hz). The estimated “background activity” is then “removed” (i.e. excluded, such as subtracted) from the power in the frequency range of interest or a power spectral density value at a specific frequency within this frequency range (e.g. the peak frequency, or a predetermined frequency, such as e.g. a frequency identified as the group level peak in a population, e.g. 23 Hz in the present case). The resulting estimate should thereby provide a more specific measure of the oscillatory physiological process under investigation (here GABAA-related beta-band oscillations).
More specifically, the “background power spectral density” at a given frequency may be derived by linear interpolation of logarithmically transformed power and frequencies (see FIG. 4B). The power signal in spectral analysis is typically log transformed by default. […] The “background power” is then estimated as the integral of this “background power spectral density” over the beta frequency range (here defined as 16-32 Hz). In other words, the “background signal” is the area under a straight line extending between the value of the spectrum at each of the support points (“background signal line”), between 16 and 32 Hz. The “locally referenced beta power” is then defined as the logarithm of the ratio between the beta power defined as the integral over the beta frequency range and the estimate of the “background power” (which is equivalent to the logarithm of the beta power defined as the integral over the beta frequency range, minus the logarithm of the estimate of the “background power”, or the area under the power curve in log scale, in the beta frequency range, minus the area under the background signal line in log scale, in the beta frequency range). Note that this metric will be negative when there is a deficit in the signal in this range compared to background.
In a third implementation, an approach using a global fit of the power spectrum composed of a superposition of oscillatory signals and a 1/f^α component was used to estimate the background signal. The 1/f^α component of the fit (estimated as described in Donoghue et al., 2020, see FIG. 4C—note that only step (a) of the method described in Donoghue et al. is used herein, where an aperiodic component is estimated, see FIG. 2a of Donoghue et al.) was used as the estimate of the background power spectral density. Analogously to the above, in a first embodiment of this third implementation, the extracted “1 over f referenced beta power” was used to estimate the background signal, and in a second embodiment the extracted “1 over f referenced beta peak power” was used to estimate the background signal. […]

GABA-A α5 [2] = target: T2, GABA-A α5; parameters: host or cells: brain of healthy volunteers (and individuals with Down syndrome), in vivo EEG; details: cited from earlier work
[3] = selective doses 25-100 mg, parallel group, no pre-treatment baseline

T1 sequence (P19969 32-464 limits assumed): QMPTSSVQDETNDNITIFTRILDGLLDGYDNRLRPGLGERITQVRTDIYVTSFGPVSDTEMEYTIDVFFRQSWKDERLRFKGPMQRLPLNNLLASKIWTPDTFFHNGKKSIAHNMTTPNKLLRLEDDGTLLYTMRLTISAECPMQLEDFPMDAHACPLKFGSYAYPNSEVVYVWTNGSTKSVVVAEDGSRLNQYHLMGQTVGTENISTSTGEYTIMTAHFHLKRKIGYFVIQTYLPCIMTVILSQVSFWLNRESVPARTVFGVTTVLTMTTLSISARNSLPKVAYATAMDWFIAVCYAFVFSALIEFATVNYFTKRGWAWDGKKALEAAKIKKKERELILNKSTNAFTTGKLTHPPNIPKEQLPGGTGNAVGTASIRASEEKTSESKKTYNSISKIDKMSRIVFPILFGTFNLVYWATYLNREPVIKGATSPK
T1 sequence (P63079 26-473 partner): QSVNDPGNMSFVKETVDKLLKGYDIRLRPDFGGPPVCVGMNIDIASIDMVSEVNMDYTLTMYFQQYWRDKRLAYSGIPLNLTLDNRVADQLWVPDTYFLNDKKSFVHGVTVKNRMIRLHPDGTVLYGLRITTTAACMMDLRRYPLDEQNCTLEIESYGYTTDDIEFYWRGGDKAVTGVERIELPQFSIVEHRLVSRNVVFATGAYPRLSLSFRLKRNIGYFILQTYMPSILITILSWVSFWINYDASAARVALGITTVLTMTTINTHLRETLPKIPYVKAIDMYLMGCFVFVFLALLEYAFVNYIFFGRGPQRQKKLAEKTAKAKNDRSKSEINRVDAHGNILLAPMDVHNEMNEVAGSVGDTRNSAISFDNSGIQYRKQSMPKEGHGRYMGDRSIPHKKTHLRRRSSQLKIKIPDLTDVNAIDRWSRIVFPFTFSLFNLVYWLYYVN
T1 sequence (P18508 39-466): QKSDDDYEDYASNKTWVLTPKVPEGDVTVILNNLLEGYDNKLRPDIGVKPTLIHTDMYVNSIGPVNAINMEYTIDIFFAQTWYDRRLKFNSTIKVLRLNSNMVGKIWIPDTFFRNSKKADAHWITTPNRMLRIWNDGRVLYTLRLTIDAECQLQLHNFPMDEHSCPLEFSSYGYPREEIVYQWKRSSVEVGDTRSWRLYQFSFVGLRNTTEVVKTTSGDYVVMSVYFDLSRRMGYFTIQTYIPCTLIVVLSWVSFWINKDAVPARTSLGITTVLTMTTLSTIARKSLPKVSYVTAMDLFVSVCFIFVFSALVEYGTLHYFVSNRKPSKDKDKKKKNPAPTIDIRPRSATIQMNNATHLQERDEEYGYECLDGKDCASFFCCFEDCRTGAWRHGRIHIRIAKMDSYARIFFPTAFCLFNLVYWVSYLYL

SMILES: CCc1c(C(=O)OC)ncc2[nH]c3cc(OC)c(OC)cc3c12 [DMCM]
- EEG beta-band power, non-selective GABA-A NAMs (GABA-A receptors): decrease beta-band power

SMILES: C#Cc1ccc2c(c1)C(c1ccccc1F)=N[C@H](C)c1c(C(=O)NC)ncn1-2 [MP-III-022]
- Impairments in social, repetitive and restrictive behavioural domains (GABA-A α5 receptors): prevented impairments in many parameters

SMILES: CN1Cc2c(C(=O)OC(C)(C)C)ncn2-c2ccsc2C1=O [Ro 19-4603]
- EEG beta-band power, non-selective GABA-A NAMs (GABA-A receptors): decrease beta-band power

SMILES: Cc1ccc(-c2noc(C)c2COc2ccc(C(=O)NC3CCOCC3)nn2)cn1 [alogabat]
- Dose range that exhibits the full PD response (within GABA-A a5 receptor selective dose range) (GABA-A α5 [1]; EEG beta-band power change from baseline across dose levels): 25 to 100 mg
- Effect size (ES) placebo vs treated group, locally referenced beta power (GABA-A α5 [1]; both variants (FIG. 4B interpolation, FIG. 4C 1/f fit), selective doses 25-100 mg, parallel group, no pre-treatment baseline, p<0.007): ~0.7
- Frequency specificity of the pharmacodynamic EEG effect (GABA-A α5 [1]; change in power spectrum, 25-100 mg vs placebo, relative to pre-treatment baseline): specific to the beta-band
- Change from baseline in EEG beta-band power (12-30 Hz) (GABA-A α5 [1]; relative to pre-dose baseline, compared to placebo, about 180 min after dosing): increases EEG beta-band power; also recorded: strong and consistent increase in beta-band power
- Effect size (ES) placebo vs treated group, relative beta power (GABA-A α5 [1]; [3]): 0.62
- Separation of placebo and treated group by absolute beta power (GABA-A α5 [1]; [3]): not able to discriminate between the alogabat and the placebo group; also recorded: does not allow separating groups

SMILES: Cc1onc(-c2ccc(F)cc2)c1COc1ccc(C(=O)N2CCS(=O)(=O)CC2)cn1 [basmisanil]
- EEG beta-band power (GABA-A α5 [2]; healthy volunteers and individuals with down-syndrome, Goeldner et al., 2022, Hipp et al., 2021): decrease in beta-band power
- EEG beta-band power (GABA-A α5 [2]; healthy volunteers, Hipp et al., 2021, FIG. 6): decrease EEG beta-band power
